Results: the supplement of paper PMC10307832

Key:
Assay in all cases: relative viability (nuclei count vs DMSO), 5 days (fraction); higher = more cells survive
A-427 = test system: A-427
Outline: (§1)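 Values are medians from duplicate plates. Each reflects relative viability, defined as the nuclei count of treated wells over that of vehicle wells. Lung cancer cell lines in 1536-well plates were pin-tool dosed one day after seeding with one drug alone or with a fixed anchor-drug dose plus five library-drug doses (not always all listed) in √10 steps, then fixed, stained and imaged at 4× after 5 days.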

A549 = test system: A549
Outline: as §1

CAL-12T = test system: CAL-12T
Outline: as §1

Calu-6 = test system: Calu-6
Outline: as §1

EBC-1 = test system: EBC-1
Outline: as §1

IA-LM = test system: IA-LM
Outline: as §1

LK-2 = test system: LK-2
Outline: as §1

NCI-H1299 = test system: NCI-H1299
Outline: as §1

NCI-H1703 = test system: NCI-H1703
Outline: as §1

NCI-H1734 = test system: NCI-H1734
Outline: as §1

NCI-H2009 = test system: NCI-H2009
Outline: as §1

UMC-11 = test system: UMC-11
Outline: as §1

## CCN(CC)CCCCNc1ncc2cc(-c3cc(OC)cc(OC)c3)c(NC(=O)NC(C)(C)C)nc2n1 + C[C@]1(O)C[C@@H](c2nc(-c3ccc4ccc(-c5ccccc5)nc4c3)c3c(N)nccn32)C1 [Linsitinib] (partner 1 µM)
A-427; first compound 0.01 µM
  relative viability: 1.12
A-427; first compound 0.03162 µM
  relative viability: 1.17
A-427; first compound 0.1 µM
  relative viability: 1.21
A-427; first compound 0.3162 µM
  relative viability: 1.18
A-427; first compound 1 µM
  relative viability: 0.993
A549; first compound 0.01 µM
  relative viability: 0.623
A549; first compound 0.03162 µM
  relative viability: 0.626
A549; first compound 0.1 µM
  relative viability: 0.563
A549; first compound 0.3162 µM
  relative viability: 0.636
A549; first compound 1 µM
  relative viability: 0.595
CAL-12T; first compound 0.01 µM
  relative viability: 0.873
CAL-12T; first compound 0.03162 µM
  relative viability: 0.954
CAL-12T; first compound 0.1 µM
  relative viability: 0.729
CAL-12T; first compound 0.3162 µM
  relative viability: 0.906
CAL-12T; first compound 1 µM
  relative viability: 0.844
Calu-6; first compound 0.03162 µM
  relative viability: 0.946
Calu-6; first compound 0.1 µM
  relative viability: 0.969
Calu-6; first compound 0.3162 µM
  relative viability: 0.898
Calu-6; first compound 1 µM
  relative viability: 1.02
EBC-1; first compound 0.01 µM
  relative viability: 0.885
EBC-1; first compound 0.03162 µM
  relative viability: 1.04
EBC-1; first compound 0.1 µM
  relative viability: 0.994
EBC-1; first compound 0.3162 µM
  relative viability: 1.06
EBC-1; first compound 1 µM
  relative viability: 0.879
IA-LM; first compound 0.01 µM
  relative viability: 0.757
IA-LM; first compound 0.03162 µM
  relative viability: 0.748
IA-LM; first compound 0.1 µM
  relative viability: 0.621
IA-LM; first compound 0.3162 µM
  relative viability: 0.78
IA-LM; first compound 1 µM
  relative viability: 0.506
LK-2; first compound 0.01 µM
  relative viability: 0.536
LK-2; first compound 0.03162 µM
  relative viability: 0.339
LK-2; first compound 0.1 µM
  relative viability: 0.401
LK-2; first compound 0.3162 µM
  relative viability: 0.356
LK-2; first compound 1 µM
  relative viability: 0.17
NCI-H1299; first compound 0.01 µM
  relative viability: 1.01
NCI-H1299; first compound 0.03162 µM
  relative viability: 1.01
NCI-H1299; first compound 0.1 µM
  relative viability: 0.986
NCI-H1299; first compound 0.3162 µM
  relative viability: 1.09
NCI-H1299; first compound 1 µM
  relative viability: 0.944
NCI-H1703; first compound 0.01 µM
  relative viability: 1.02
NCI-H1703; first compound 0.03162 µM
  relative viability: 0.63
NCI-H1703; first compound 0.1 µM
  relative viability: 0.792
NCI-H1703; first compound 0.3162 µM
  relative viability: 0.959
NCI-H1703; first compound 1 µM
  relative viability: 0.967
NCI-H1734; first compound 0.01 µM
  relative viability: 0.864
NCI-H1734; first compound 0.03162 µM
  relative viability: 0.923
NCI-H1734; first compound 0.1 µM
  relative viability: 0.993
NCI-H1734; first compound 0.3162 µM
  relative viability: 0.913
NCI-H1734; first compound 1 µM
  relative viability: 0.835
NCI-H2009; first compound 0.01 µM
  relative viability: 1.29
NCI-H2009; first compound 0.03162 µM
  relative viability: 1.19
NCI-H2009; first compound 0.1 µM
  relative viability: 1.23
NCI-H2009; first compound 0.3162 µM
  relative viability: 1.26
NCI-H2009; first compound 1 µM
  relative viability: 1.21
UMC-11; first compound 0.01 µM
  relative viability: 1.25
UMC-11; first compound 0.03162 µM
  relative viability: 1.02
UMC-11; first compound 0.1 µM
  relative viability: 1.29
UMC-11; first compound 0.3162 µM
  relative viability: 1.21
UMC-11; first compound 1 µM
  relative viability: 0.99

## COc1nc(C)cnc1NS(=O)(=O)c1cccnc1-c1ccc(-c2nnco2)cc1 [Zibotentan] + C[C@]1(O)C[C@@H](c2nc(-c3ccc4ccc(-c5ccccc5)nc4c3)c3c(N)nccn32)C1 [Linsitinib] (partner 1 µM)
A-427; first compound 0.08 µM
  relative viability: 1.12
A-427; first compound 0.253 µM
  relative viability: 1.17
A-427; first compound 0.8 µM
  relative viability: 1.14
A-427; first compound 2.53 µM
  relative viability: 1.12
A549; first compound 0.08 µM
  relative viability: 0.578
A549; first compound 0.253 µM
  relative viability: 0.539
A549; first compound 0.8 µM
  relative viability: 0.589
A549; first compound 2.53 µM
  relative viability: 0.642
CAL-12T; first compound 0.08 µM
  relative viability: 0.903
CAL-12T; first compound 0.253 µM
  relative viability: 0.876
CAL-12T; first compound 0.8 µM
  relative viability: 0.889
CAL-12T; first compound 2.53 µM
  relative viability: 0.634
Calu-6; first compound 0.08 µM
  relative viability: 0.996
Calu-6; first compound 0.253 µM
  relative viability: 0.885
Calu-6; first compound 0.8 µM
  relative viability: 0.966
Calu-6; first compound 2.53 µM
  relative viability: 0.922
EBC-1; first compound 0.08 µM
  relative viability: 0.816
EBC-1; first compound 0.253 µM
  relative viability: 0.986
EBC-1; first compound 0.8 µM
  relative viability: 0.934
EBC-1; first compound 2.53 µM
  relative viability: 0.915
IA-LM; first compound 0.08 µM
  relative viability: 0.627
IA-LM; first compound 0.253 µM
  relative viability: 0.743
IA-LM; first compound 0.8 µM
  relative viability: 0.778
IA-LM; first compound 2.53 µM
  relative viability: 0.456
LK-2; first compound 0.08 µM
  relative viability: 0.709
LK-2; first compound 0.253 µM
  relative viability: 0.535
LK-2; first compound 2.53 µM
  relative viability: 0.701
NCI-H1299; first compound 0.08 µM
  relative viability: 0.938
NCI-H1299; first compound 0.253 µM
  relative viability: 1.01
NCI-H1299; first compound 0.8 µM
  relative viability: 0.984
NCI-H1299; first compound 2.53 µM
  relative viability: 0.987
NCI-H1703; first compound 0.08 µM
  relative viability: 0.655
NCI-H1703; first compound 0.253 µM
  relative viability: 0.718
NCI-H1703; first compound 0.8 µM
  relative viability: 0.865
NCI-H1703; first compound 2.53 µM
  relative viability: 0.167
NCI-H1734; first compound 0.08 µM
  relative viability: 1.01
NCI-H1734; first compound 0.253 µM
  relative viability: 0.815
NCI-H1734; first compound 0.8 µM
  relative viability: 0.936
NCI-H1734; first compound 2.53 µM
  relative viability: 0.975
NCI-H2009; first compound 0.08 µM
  relative viability: 1.14
NCI-H2009; first compound 0.253 µM
  relative viability: 1.05
NCI-H2009; first compound 0.8 µM
  relative viability: 1.2
NCI-H2009; first compound 2.53 µM
  relative viability: 1.22
UMC-11; first compound 0.08 µM
  relative viability: 1.11
UMC-11; first compound 0.253 µM
  relative viability: 0.944
UMC-11; first compound 0.8 µM
  relative viability: 1.03
UMC-11; first compound 2.53 µM
  relative viability: 1.05
